{
  "source": "patent US12286439B2",
  "about": "“Inhibitors of ERK nuclear translocation” (Yeda Research and Development Co. Ltd., priority 2018, dated 2025)",
  "key": {"A2058 cells": {"test_system": "A2058 cells", "assay": "Dose-response analysis, A2058 cells", "format": "cell-based", "details": "10 μM", "procedure": "(§1) FIG. 15A presents dose response curves of compounds C17, D3, D11 and D14 on 8 cancer cells. Five melanoma cell lines (A2185, A2352, A2024, A2058 and LOX-IMVI), HeLa, HCT-116 and PC3 cells were grown in 1% FCS media containing either DMSO (0.1%), EPE peptide (10 μM), or Compounds C17, D3, D11, D14 at the indicated concentrations, for 72 hours. Viable cells were quantified by staining with methylene blue. Data presented as percentage of DMSO control ±SE of triplicates. […] IC50 values were calculated by interpolation in the curves in FIG. 15A. […] Bar graphs represent average viability respect to DMSO control ±SE of triplicates.\n(§2) Cell Viability (IC50) Assay:\n(§3) Cells were seeded at a density of 4000 cells per well into 96-well plates in complete medium. After 24 hours, medium was replaced by 1% FCS (fetal calf serum) containing appropriate treatments. Fresh medium containing the same agents was replaced every day. After 96 hours, cell viability was assessed using the CellTiter-Glo reagent (Promega; Madison, WI). IC50 values were determined using GraphPad Prism."}, "[1]": {"test_system": "BRAF-mutant, NRAS-mutant and NF1-mutant melanomas", "details": "Arafeh et al., Sci Rep 2017; cited from earlier work"}, "[2]": {"test_system": "ERK1/2 nuclear translocation", "assay": "Determination of ERK1/2 localization by fluorescence microscopy after TPA stimulation", "format": "cell-based", "details": "10 μM, TPA 100 nM, 15 minutes", "procedure": "Determination of Protein Localization by Fluorescence Microscopy:\nIndicated cells were seeded on coverslips (coated with 0.001% w/v poly-L-lysine or not, depending on the cell line) at 50% confluency. After the indicated treatment, cells were fixed in 4% paraformaldehyde/PBS for 20 minutes on an ice surface, permeabilized with 0.1% Triton X-100/PBS for 5 minutes at 23° C., then blocked in 2% BSA/PBS for 30 minutes at 23° C. The fixed cells were sequentially incubated with appropriate antibodies (in 2% BSA/PBS, 1.5 hour), washed 3 times with PBS^−/−, and followed by incubation with either Cy-2-conjugated or rhodamine-conjugated secondary antibodies (1:200) and with DAPI ([…]; 1:100) in 2% BSA/PBS for 45 minutes. Slides were analyzed and photographed by a fluorescence microscope (Olympus BX51, ×40). Background correction, and contrast adjustment of raw data images were performed using Photoshop (Adobe, CA, USA).\nThe effect of Z56 was compared with that of the inhibitory effect of EPE peptide on nuclear translocation of ERK1/2.\nThe effects of the compounds on ERK1/2 nuclear translocation were evaluated in three cell lines (HeLa cells and two melanoma cell lines, A2185 and A2352), by treating the cells with each compound for two hours, and determining nuclear translocation using fluorescent anti-ERK antibodies, according to procedures described hereinabove."}, "[3]": {"test_system": "HeLa, A2352, A2185, LOX-IMVI, A4132, A2024, MDA-MB-231, PC3, A2058 and MCF7 cells", "assay": "Viability assay (methylene blue), ten cancer cell lines", "format": "cell-based", "details": "10 μM, 72 hours, 1% FCS", "procedure": "Ten cancer cell lines were treated with either EPE peptide (10 μM; middle bars) or Compound Z56 (3 μM; right bars) or DMSO control (0.1%; left bars) in 1% FCS (fetal calf serum) for 72 hours.\nA3252 and A2058 cells were treated either with EPE peptide (10 μM), Z56 (1, 3 or 10 μM) or DMSO control (0.1%). The graphs present the kinetics of cell proliferation at the indicated times. Viable cells were quantified by staining with methylene blue. All results were presented as a fold change of the initial cell number and represent averages ±SE of 3 experiments in triplicate.\nCells were seeded at low confluence into 24, 48 or 96-well plates in complete medium. After 24 hours, medium was replaced by 1% FCS (fetal calf serum) containing appropriate treatments. Fresh medium containing the same agents was replaced every day. After 72 or 96 hours of treatment, cells were fixed with 4% formaldehyde overnight at 23° C., washed once with 0.1 M borate buffer (pH 8.5) for 10 minutes, and stained with of 1% methylene blue in 0.1 M borate buffer (pH 8.5) for 30 minutes. Excess stain was washed out with distilled water. Color was extracted by adding 0.1 M HCl (3 hours, 23° C.), and absorbance measured at 595 nm in an ELISA reader. For time course experiments, attached cells were fixed and measured at 0, 24, 48, 72 and 96 hours. […]"}, "[4]": {"target": "interaction of importin7 and ERK1/2 (Homo sapiens, UniProt O95373)", "sequence (O95373 whole entry)": "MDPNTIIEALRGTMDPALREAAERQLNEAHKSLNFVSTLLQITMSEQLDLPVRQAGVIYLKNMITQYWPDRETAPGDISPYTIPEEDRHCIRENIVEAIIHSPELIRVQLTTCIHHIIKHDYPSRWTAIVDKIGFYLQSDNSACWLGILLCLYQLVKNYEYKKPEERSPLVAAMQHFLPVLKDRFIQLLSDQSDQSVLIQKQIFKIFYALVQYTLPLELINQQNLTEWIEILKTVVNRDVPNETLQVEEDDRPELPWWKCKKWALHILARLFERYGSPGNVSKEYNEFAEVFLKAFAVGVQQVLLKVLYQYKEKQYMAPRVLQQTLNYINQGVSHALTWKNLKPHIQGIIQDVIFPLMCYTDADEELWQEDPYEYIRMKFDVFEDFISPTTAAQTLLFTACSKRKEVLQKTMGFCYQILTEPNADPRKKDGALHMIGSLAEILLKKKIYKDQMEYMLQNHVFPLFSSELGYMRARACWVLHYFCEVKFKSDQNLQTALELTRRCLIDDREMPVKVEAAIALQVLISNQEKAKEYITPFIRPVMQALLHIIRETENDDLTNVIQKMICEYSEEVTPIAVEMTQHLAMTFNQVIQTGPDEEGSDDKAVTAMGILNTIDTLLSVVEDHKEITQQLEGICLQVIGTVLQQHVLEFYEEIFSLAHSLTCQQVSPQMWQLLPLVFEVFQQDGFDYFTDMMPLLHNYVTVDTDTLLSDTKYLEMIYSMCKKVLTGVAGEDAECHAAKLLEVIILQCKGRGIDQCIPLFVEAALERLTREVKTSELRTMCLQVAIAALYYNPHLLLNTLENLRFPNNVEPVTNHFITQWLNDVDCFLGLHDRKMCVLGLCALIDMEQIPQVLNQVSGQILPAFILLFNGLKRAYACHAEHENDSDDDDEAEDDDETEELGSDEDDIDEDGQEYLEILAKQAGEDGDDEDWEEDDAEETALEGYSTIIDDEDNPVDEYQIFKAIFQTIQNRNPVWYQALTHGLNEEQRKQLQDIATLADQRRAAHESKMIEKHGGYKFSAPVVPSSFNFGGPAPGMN", "details": "Plotnikov et al., Nat Commun 2015; cited from earlier work"}, "PC3 cells": {"test_system": "PC3 cells", "assay": "Dose-response analysis, PC3 cells", "format": "cell-based", "details": "10 μM, 72 hours", "procedure": "as §1, §2, §3"}, "[5]": {"test_system": "Panc-1, AsPC-1, CFPAC-1, MIA PaCa-2, Capan-1, Capan-2 and BxPC-3 pancreatic cancer cells", "assay": "Viability assay (methylene blue), pancreatic cancer cell lines", "format": "cell-based", "details": "10 μM, 72 hours", "procedure": "FIGS. 6A and 6B present data showing that Compound Z56 prevents proliferation of pancreatic cancer cells. […] Panc-1, AsPC-1, CFPAC-1, Mia PaCa-2, Capan-1, Capan-2 (Ras-transformed) and BxPC-3 (Ras-wild type) pancreatic cancer cells were treated with either EPE peptide (10 μM; middle bars) or Z56 (3 μM; right bars) or DMSO control (0.1%; left bars) in 1% FCS for 72 hours. […] Panc-1, AsPC-1, BxPC-3 and Mia PaCa-2 cells grown in 1% FCS medium containing either EPE peptide (10 μM), 56 (3 μM), PLX4032 (1 μM), PD184352 (5 μM) or DMSO control (0.1%). The graphs present the kinetics of cell proliferation at the indicated times after the treatment started. Quantification of all viable cells was done by methylene blue and repeated 3 times in triplicates. All results presented as a fold change of the initial cell number and represent averages ±SE.\nCells were seeded at low confluence into 24, 48 or 96-well plates in complete medium. After 24 hours, medium was replaced by 1% FCS (fetal calf serum) containing appropriate treatments. Fresh medium containing the same agents was replaced every day. After 72 or 96 hours of treatment, cells were fixed with 4% formaldehyde overnight at 23° C., washed once with 0.1 M borate buffer (pH 8.5) for 10 minutes, and stained with of 1% methylene blue in 0.1 M borate buffer (pH 8.5) for 30 minutes. Excess stain was washed out with distilled water. Color was extracted by adding 0.1 M HCl (3 hours, 23° C.), and absorbance measured at 595 nm in an ELISA reader. For time course experiments, attached cells were fixed and measured at 0, 24, 48, 72 and 96 hours. For dose-response experiments, cells were treated with indicated concentrations of reagent, fixed and stained after 72 hours as above.\nActivating mutations in Ras are found in more than 95% of pancreatic cancers where signaling through both Raf and Akt pathway drives cancer progression [Campbell et al., Cancer Res 2007, 67:2098-2106]. However, no effective treatments that target this mutant protein have reached the clinic to date, and pancreatic ductal adenocarcinoma remains an almost universally fatal disease [Bryant et al., Trends Biochem Sci 2014, 39:91-100]. Therefore, treating these pancreatic cancer cells downstream of Ras, without overactivating the Akt pathway, should be at least partially beneficial. The effect of Compound Z56 (and EPE peptide) on cell viability of Ras-transformed (and Ras-wild type) pancreatic cancer cells was determined, using a variety of cell lines.\nThe effects of Compound Z56 on the viability of pancreatic cancer cell lines at various times after treatment was compared with those of PLX4032 (a B-Raf inhibitor) and PD184352 (a MEK1/2 inhibitor)."}},
  "note": "*: point of attachment. Myristoyl = CCCCCCCCCCCCCC(=O)*",
  "data": [
    {"substance": "EPE peptide: peptide GQLNHILGILGEPEQEDL (SEQ ID NO: 1) conjugated at N-terminus to myristic acid and C-terminal amidated (Myristoyl-GQLNHILGILGEPEQEDL-NH2; SMILES CCCCCCCCCCCCCC(=O)NCC(=O)N[C@@H](CCC(N)=O)C(=O)N[C@@H](CC(C)C)C(=O)N[C@@H](CC(N)=O)C(=O)N[C@@H](Cc1c[nH]cn1)C(=O)N[C@H](C(=O)N[C@@H](CC(C)C)C(=O)NCC(=O)N[C@H](C(=O)N[C@@H](CC(C)C)C(=O)NCC(=O)N[C@@H](CCC(=O)O)C(=O)N1CCC[C@H]1C(=O)N[C@@H](CCC(=O)O)C(=O)N[C@@H](CCC(N)=O)C(=O)N[C@@H](CCC(=O)O)C(=O)N[C@@H](CC(=O)O)C(=O)N[C@@H](CC(C)C)C(N)=O)[C@@H](C)CC)[C@@H](C)CC) [reference compound]", "values": [
      {"measurement": "viability of BRAF melanoma cells A2058", "setting": "A2058 cells", "value": "lack of effect"},
      {"measurement": "combination with the MEK inhibitor trametinib, viability of NRAS-mutant melanomas", "setting": "[1]", "value": "exhibited synergy"},
      {"measurement": "viability of BRAF-mutant, NRAS-mutant and NF1-mutant melanomas", "setting": "[1]", "value": "significantly reduced the viability"},
      {"measurement": "degree of ERK1/2 nuclear localization induced by TPA (percentage of cells with nuclear ERK1/2 staining)", "setting": "[2]; 2 hours pretreatment, MCF7, A2352, HB2 and HeLa cells", "value": "phenotype similar to the basal state"},
      {"measurement": "nuclear accumulation of ERK1/2 upon TPA stimulation", "setting": "[2]; 2 hours, A2185 and A2352 cells", "value": "inhibited"},
      {"measurement": "proliferation of PC3, A2058 and MCF7 cells", "setting": "[3]", "value": "not significantly affected"},
      {"measurement": "apoptosis / proliferation of EPE-sensitive cell lines", "setting": "[3]; HeLa, A2352, A2185, LOX-IMVI, A4132, Z2024, MDA-MB-231", "value": "induced apoptosis"},
      {"measurement": "interaction of importin7 and ERK1/2 and nuclear translocation of ERK1/2", "setting": "[4]", "value": "blocks the interaction of importin7 and ERK1/2"},
      {"measurement": "viability of PC3 cells", "setting": "PC3 cells", "value": "only a very modest effect"},
      {"measurement": "proliferation/viability", "setting": "[5]; 4 Ras-transformed pancreatic cell lines other than Panc-1 and AsPC-1", "value": "no major effect"},
      {"measurement": "reduction of cell proliferation relative to control", "setting": "[5]; Ras-wild type BxPC-3 cells", "value": 50, "unit": "%"},
      {"measurement": "cell viability and apoptosis", "setting": "[5]; only 2 of the 7 tested cell lines (Panc-1 and AsPC-1)", "value": "reduced cell viability and induced apoptosis"}
    ]}
  ]
}
